Results on two compounds are retold here after patent publication US20220087962A1, “COMPOSITIONS AND METHODS FOR TREATING AGE-RELATED DISEASES OR CONDITIONS” (Arizona Board of Regents on Behalf of the University of …, priority 2019, published 2022).

One data set deals with tau. The conditions noted are these: cultured human neurons; cited from earlier work.
Another data set deals with brain tissue. The conditions noted are these: cited from earlier work.
Another data set deals with α-synuclein (Homo sapiens, UniProt P37840). The conditions noted are these: QA self-assembled fibrils; cited from earlier work.
Data set [1] deals with C. elegans expressing human Aβ1-42 in body wall muscle. Put plainly: Paralysis in C. elegans expressing human Aβ1-42 in body wall muscle (Alzheimer's disease model). In kind it is in vivo, Caenorhabditis elegans. The note with it: 3HAA supplementation; transgenic Aβ1-42 in body wall muscle. On the procedure: It was then tested whether 3HAA would prevent Aβ toxicity in vivo. In C. elegans, transgenic expression of the aggregate-prone 42 amino acid form of Aβ (Aβ1-42) in body wall muscle induces paralysis (Link C D. Proc Natl Acad Sci USA 1995, 92:9368-72). […] Next and as described below, 3HAA will be tested as a treatment for amyloid pathology in a cellular context more relevant to AD.

Data set [2] is described as follows: Direct interaction of 3HAA with H2O2 in vitro. The conditions noted are these: addition of 3HAA in the absence of other media components. From the text: (§1) Superoxide dismutases degrade cellular superoxide to oxygen and H2O2.
The test system of data set [3] is C. elegans. Put plainly: Endogenous H2O2 produced by C. elegans in vivo. The arrangement: species or system Caenorhabditis elegans. The note with it: 3HAA supplementation.
Text: as §1

Another data set deals with hemeoxygenase-1 (HO-1). The note with it: human cell culture; cited from earlier work.
The test system of data set [4] is C. elegans. Put plainly: C. elegans lifespan with 3HAA supplementation. In kind it is in vivo, Caenorhabditis elegans. The note with it: 3HAA supplementation of worms. The method, then:
3HAA mediates lifespan extension by haao-1 knockdown. 3HAA is red in color. Worms with reduced HAAO turned visibly red with age. Using liquid chromatography-tandem mass spectrometry (LC-MS/MS), it was confirmed that these worms had elevated 3HAA (FIG. 3B). Next, it was assessed whether 3HAA may mediate the benefits of reducing haao-1. Indeed, worms supplemented with 3HAA were long-lived (FIG. 3C), mimicking haao-1 knockdown (FIG. 3D).

For data set [5], the system named is C. elegans expressing a 35-unit polyglutamine repeat peptide in body wall muscle. Put plainly: Paralysis in C. elegans expressing a 35-unit polyglutamine repeat peptide in body wall muscle (Huntington's disease model). In kind it is in vivo, Caenorhabditis elegans. The note with it: 3HAA supplementation; aggregate-prone polyglutamine repeat in body wall muscle.

A further data set concerns the target Aβ (Homo sapiens, UniProt P05067). The note with it: buffered media; direct binding to Aβ; cited from earlier work.
The subject of the next data set is brains of rats. The conditions noted are these: cited from earlier work.
Data set [6] has as its system cultured human blood cells. The conditions noted are these: cited from earlier work.

Entries after “also recorded” stand apart in the source; their conditions may differ.

Sequence of Aβ (P05067 672-713 limits assumed): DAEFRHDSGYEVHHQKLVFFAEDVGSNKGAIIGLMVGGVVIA

Take `O=C(O)c1cccnc1C(=O)O` [QA, quinolinic acid]: in the data set on tau, the tau phosphorylation entry is given as “drives tau phosphorylation”. Moreover, in the data set on brain tissue, the “in vivo lipid peroxidation in brain tissue” value is listed as “induces in vivo lipid peroxidation in brain tissue”. Moreover, on α-synuclein, the “seeding of α-synuclein aggregation” value is “seed and accelerate aggregation of α-synuclein; also recorded: seeding aggregation of α-synuclein”.
As for `Nc1c(O)cccc1C(=O)O` [3HAA, 3-hydroxyanthranilic acid], in [1], the “onset of paralysis (Aβ toxicity)” value is on record as “delayed onset of paralysis; also recorded: delays paralysis; also recorded: delayed Aβ pathology”. Further, the “measureable H2O2 in vitro (direct degradation of H2O2)” value in data set [2] is “reduced measureable H2O2; also recorded: directly breaks down H2O2; also recorded: directly degrades H2O2; also recorded: direct degradation of hydrogen peroxide”. The “endogenous H2O2 produced by C. elegans in vivo” value in the data set on C. elegans [3] is on record as “limited endogenous H2O2; also recorded: reduces H2O2 produced by C. elegans in vivo”. In addition, in the data set with hemeoxygenase-1 (HO-1), the “expression of hemeoxygenase-1 (HO-1)” value is on record as “induces expression of the antioxidant hemeoxygenase-1 (HO-1)”. Besides, in the data set with C. elegans [4], the lifespan entry is “long-lived; also recorded: extends lifespan; also recorded: robustly extended lifespan”. Moreover, the “paralysis (polyglutamine repeat model)” value in data set [5] is on record as “delays paralysis”. In addition, on Aβ, the “Aβ misfolding/aggregation in vitro” value is “prevents Aβ aggregation; also recorded: prevents Aβ misfolding through direct binding; also recorded: preventing misfolding and aggregation”. Moreover, the lipid peroxidation result in the data set with brains of rats is given as “prevents”. The LDL oxidation result in data set [6] is reported as “prevents LDL oxidation”.
